Results from paper PMC10897196, “Structure–activity characteristics of phenylalanine analogs selectively transported by L-type amino acid transporter 1 (LAT1)” (Scientific Reports, 2024).
Where two headings read alike, the source gives them in different places.

Tests used:
[1] = Tissue accumulation (plasma, tumor, small intestine) in B16-F10 tumor-bearing mice, HPLC; type: in vivo
Description: Female C57BL/6J mice were subcutaneously injected with 2 × 10^6 B16-F10 cells. The cells were prepared in a mixture containing a 1:1 volume ratio of phosphate-buffered saline (PBS) and Matrigel (Corning, New York, USA), with the total injection volume being 200 μL, administered into the dorsal flank. Tumor growth was measured bi-daily using calipers until tumors reached a size of approximately 300 ~ 500 mm^3, at which point they were deemed palpable. […] Blood samples were collected at 30 and 60 min post-administration. Then both the tumors and small intestines were excised and weighed for subsequent analysis by HPLC.
(§1) HPLC analyses were conducted as previously described. In brief, tumors and small intestines were homogenized in ice-cold PBS (3 times the tissue weight, v/w). The homogenates were then centrifuged at 15,000 ×g for 40 min at 4 °C. A 10 μL aliquot of the tissue supernatant or plasma was mixed with 190 μL of acetonitrile (MeCN) to precipitate proteins. This mixture was subsequently centrifuged at 15,000 ×g for 30 min at 4 °C. The resulting supernatant (100 μL) was dried, and the residue was reconstituted in 20 μL of 400 mM sodium borate (pH 8.0). Finally, 5 μL of 40 mM 4-fluoro-7-nitro-2,1,3-benzoxadiazole (NBD-F) in MeCN was added for fluorescence derivatization. HPLC analysis was carried out using a NANOSPACE SI-2 HPLC system (Shiseido, Tokyo, Japan) equipped with a fluorescence detector. […] The mobile phase consisted of MeCN, water, and trifluoroacetic acid (TFA) in a 27.5:72.5:0.05 (v/v/v) ratio, delivered at a flow rate of 200 μL/min.

human LAT1 [2] = target: T1, human LAT1 (Homo sapiens, UniProt Q01650); test: Inhibition of L-[14C]leucine uptake in HEK293-hLAT1 cells; type: cell-based; conditions: for Ki: L-[14C]leucine uptake
T1 construct: expressed in transfected cells
Excerpt: In this study, we used the HEK293 cells stably expressing human LAT1 or human LAT2, which form a heterodimeric complex with endogenous 4F2hc (CD98hc), required for plasma membrane localization. We first explored the impact of halogen group positioning in the benzene ring of Phe (Fig. 1) on its interaction with LAT1 and LAT2. […] We conducted inhibition experiments to measure the uptake of L-[^14C]leucine by LAT1 and L-[^14C]alanine by LAT2 in the presence or absence of Phe derivatives with an iodo group at position 2, 3, or 4 in the benzene ring.
The inhibition experiments were performed as described previously. HEK293-hLAT1 (1.5 × 10^5 cells/well) or HEK293-hLAT2 (2 × 10^5 cells/well) cells were plated onto poly-D-lysine-coated 24-well plates (Corning, New York, USA). Following a 2-day culture period, the uptake of 1 μM L-[^14C]leucine or L-[^14C]alanine was measured for 1 min in the absence or presence of non-radiolabeled test compounds at concentrations of 10, 30, and 100 μM. Radioactivity was quantified using a β-scintillation counter (LSC-3100; Aloka, Tokyo, Japan), and protein concentrations were determined with a Micro BCA Protein Assay Kit (Thermo Fisher Scientific, Rockford, IL). To calculate Ki values, the concentration-dependent uptake of L-[^14C]leucine or L-[^14C]alanine was analyzed in the presence and absence of test compounds[49]. The data were plotted against substrate concentration and fitted to Michaelis–Menten kinetics. Ki values were derived using nonlinear regression analysis with the enzyme kinetics inhibition module in GraphPad Prism software (Version 10.0.2; GraphPad Software Inc., San Diego, CA, USA).

[3] = Plasma concentration-time profile in normal mice after intravenous administration; type: in vivo; conditions: C57BL/6J mice, i.v., 15, 30, 60, 120 min; 2-F-Tyr 15.6 mg/kg, bicyclic-Phe 15 mg/kg
Description: The blood samples were collected at 15, 30, 60, and 120 min post-administration into lithium heparin-coated tubes (BD, New Jersey, USA) and then centrifuged at 1,500 ×g for 10 min at 23 °C. The resulting plasma was stored at −80 °C pending analysis by HPLC.
as §1

human LAT1 [4] = target: T1, human LAT1; test: Efflux of pre-loaded L-[14C]leucine from HEK293-hLAT1 cells induced by extracellular compounds; type: cell-based; conditions: 1 min
Description: We evaluated the efflux of pre-loaded L-[^14C]leucine from LAT1 and pre-loaded L-[^14C]alanine from LAT2 induced by extracellularly applied compounds.
Efflux experiments were performed as described previously. Cells cultured 48 h were pre-loaded with 5 μM L-[^14C]leucine or L-[^14C]alanine for 10 min at 37 °C. The cells were then washed, and the efflux was induced by incubating cells for 1 min in either the absence or presence of non-radiolabeled test compounds at indicated concentrations. The efflux time of 1 min fell within the linear range of time-dependent substrate efflux mediated by LAT1 and LAT2 (Supplementary Fig. S2). Following incubation, the medium was collected and radioactivity was measured in both the medium and the cells. Efflux was quantified as the percentage of radioactivity released into the medium, calculated using the formula: radioactivity of medium/(radioactivity of medium + radioactivity of cells) × 100%.
The kinetic parameters for the efflux of L-[^14C]leucine or L-[^14C]alanine induced by various concentrations of extracellularly-applied test compounds were analyzed. The baseline efflux values—those obtained in the absence of test compounds—were subtracted from the values measured in the presence of the compounds. The resultant data were fitted to Michaelis–Menten kinetics to determine the Km and Vmax by nonlinear regression analysis using “enzyme kinetics-velocity as a function of substrate” module within GraphPad Prism software.

[5] = LAT1, L-[14C]leucine efflux, mean ± S.E.M., n = 3

T1 sequence (Q01650 whole entry): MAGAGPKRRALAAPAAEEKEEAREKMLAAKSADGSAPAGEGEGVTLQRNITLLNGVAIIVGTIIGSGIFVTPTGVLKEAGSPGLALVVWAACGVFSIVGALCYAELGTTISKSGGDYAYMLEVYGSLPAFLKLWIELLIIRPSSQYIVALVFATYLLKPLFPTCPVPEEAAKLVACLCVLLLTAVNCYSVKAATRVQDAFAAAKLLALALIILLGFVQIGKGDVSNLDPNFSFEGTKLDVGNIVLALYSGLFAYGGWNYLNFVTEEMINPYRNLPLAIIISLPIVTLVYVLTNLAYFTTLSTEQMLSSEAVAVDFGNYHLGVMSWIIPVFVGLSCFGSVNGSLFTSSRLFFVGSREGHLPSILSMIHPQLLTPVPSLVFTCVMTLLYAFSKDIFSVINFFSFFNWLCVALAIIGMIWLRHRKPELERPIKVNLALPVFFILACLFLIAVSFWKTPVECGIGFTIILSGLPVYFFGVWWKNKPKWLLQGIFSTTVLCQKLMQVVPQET
T1 sequence (P08195 102-630 partner): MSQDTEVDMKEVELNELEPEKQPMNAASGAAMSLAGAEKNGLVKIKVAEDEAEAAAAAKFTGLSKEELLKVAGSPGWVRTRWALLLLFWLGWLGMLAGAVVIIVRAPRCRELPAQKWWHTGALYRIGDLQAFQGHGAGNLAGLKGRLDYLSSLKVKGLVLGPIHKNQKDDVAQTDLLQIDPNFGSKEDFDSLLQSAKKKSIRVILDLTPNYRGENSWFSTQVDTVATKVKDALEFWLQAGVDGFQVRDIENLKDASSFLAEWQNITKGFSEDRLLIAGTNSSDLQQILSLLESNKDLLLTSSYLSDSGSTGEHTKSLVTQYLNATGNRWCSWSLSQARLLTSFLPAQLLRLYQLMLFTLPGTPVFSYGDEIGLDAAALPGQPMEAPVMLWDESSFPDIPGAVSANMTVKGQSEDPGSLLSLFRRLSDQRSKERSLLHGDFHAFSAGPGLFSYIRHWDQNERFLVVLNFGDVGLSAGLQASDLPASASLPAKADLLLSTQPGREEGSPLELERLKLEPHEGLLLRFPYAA

- Concentration in small intestine compared with plasma ([1]; i.v., normalized to tissue weight / plasma volume): lower than in plasma
- Concentration in tumor compared with plasma ([1]; i.v., normalized to tissue weight / plasma volume, 2-F-Tyr at 60 min): higher than in plasma
- Inhibition of LAT1-mediated L-[14C]leucine uptake (in words, rank order) (human LAT1 [2]; 1 μM L-[14C]leucine, 1 min, compounds at 10, 30, 100 μM): inhibit
- Ki (human LAT1 [2]; Ki for LAT1 calculated at 100 μM of compound, HEK293-hLAT1, inhibitor at 100 μM): 78.2 ± 13.9 µM
- Ki (human LAT1 [2]; Ki for LAT1 calculated at 300 μM of compound, HEK293-hLAT1, inhibitor at 300 μM): 66.7 ± 7.08 µM
- Mode of inhibition of LAT1 (Lineweaver–Burk plot) (human LAT1 [2]; L-[14C]leucine 50, 100, 200, 400 μM): competitive manner
- Ki (human LAT1 [2]; HEK293-hLAT1, mean ± S.E.M., n = 3–4, read-out: Ki (μM) LAT1): 78.2 ± 13.9 µM
- Ki ratio (LAT2/LAT1) (human LAT1 [2]; LAT1 selectivity, LAT2 Ki over LAT1 Ki): 47.98
- Km (human LAT1 [4]; [5]): 27.3 ± 3.08 µM
- Vmax of efflux (% radioactivity/min) (human LAT1 [4]; [5]): 15.43 ± 0.40 % radioactivity/min
- LAT1-mediated L-[14C]leucine efflux induced (in words) (human LAT1 [4]; compounds at 10, 30, 100 μM): transported by LAT1 as substrates
SMILES: N[C@]1(C(=O)O)CCc2ccccc2C1 [bicyclic-Phe, (R)-2-amino-1,2,3,4-tetrahydro-2-naphthoic acid]
- Small intestine-to-plasma ratio (I/P) (in words) ([1]; 30 and 60 min after i.v., equimolar doses): significantly lower than that for 2-F-Tyr
- Plasma concentration (in words) [3]: consistently showing higher levels than 2-F-Tyr
